Data set [1] can be described thus: Lipophilicity of the compound, high-throughput logP using octanol-coated immobilized artificial membranes at pH 7.4. The data set is classed as physicochemical.
The nature of data set [2]: Distribution coefficient of the compound, high-throughput logD using octanol-buffer at pH 7.4 by LC-MS/MS analysis shake flask method. The data set is classed as physicochemical.
The nature of data set [3]: Inhibition of RORgammat in rat CD4+ T-cells polarized with Th17 cytokine mix assessed as inhibition of IL-17 secretion.
The next data set deals with Cytochrome P450 3A4 (Homo sapiens, UniProt P08684). In words: Time dependent inhibition of CYP3A4 (unknown origin). It is filed as ADME. Set-up: concentration or dose not given beside the values.
Sequence of Cytochrome P450 3A4 (P08684 whole entry): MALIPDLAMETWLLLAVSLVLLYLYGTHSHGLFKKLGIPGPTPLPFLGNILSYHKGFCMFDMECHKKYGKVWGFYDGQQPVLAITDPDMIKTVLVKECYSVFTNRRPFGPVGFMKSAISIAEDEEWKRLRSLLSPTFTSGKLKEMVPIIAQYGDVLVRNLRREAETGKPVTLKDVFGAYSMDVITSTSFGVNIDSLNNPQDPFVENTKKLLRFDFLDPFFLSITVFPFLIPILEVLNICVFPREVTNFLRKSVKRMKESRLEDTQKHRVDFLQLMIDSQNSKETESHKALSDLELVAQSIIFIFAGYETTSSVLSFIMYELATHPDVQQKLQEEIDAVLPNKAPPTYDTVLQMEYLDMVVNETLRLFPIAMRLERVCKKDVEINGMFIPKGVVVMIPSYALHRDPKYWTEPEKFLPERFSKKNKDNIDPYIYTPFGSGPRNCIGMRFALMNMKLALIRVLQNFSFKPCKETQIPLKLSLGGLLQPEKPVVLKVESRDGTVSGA
A short description of data set [4]: Inverse agonist activity at RORgammat in rat whole blood assessed as reduction in Con A/IL-23-stimulated IL-17 secretion after 72 hrs by ELISA. For orientation: In an ELISA, binding on a coated surface is turned into a signal by an enzyme label.
A short description of data set [5]: Intrinsic clearance in rat liver microsomes. It is filed as ADME, Microsome. To be noted: read-out: CLH.
Data set [6] can be described thus: Equilibrium aqueous solubility of the compound in pH 6.8 solution. To be noted: aqueous pH 6.8 solution. It is filed as physicochemical.
The nature of data set [7]: Clearance in Sprague-Dawley rat at 1 mg/kg, iv. It is filed as ADME, organism-based. To be noted: in vivo.
The nature of data set [8]: Dose normalized Cmax in Sprague-Dawley rat at 3 mg/kg, po. It is filed as ADME, organism-based. To be noted: in vivo.
Data set [9] is described as follows: Dose normalized AUC in Sprague-Dawley rat at 3 mg/kg, po. It is filed as ADME, organism-based. To be noted: in vivo.
Data set [10] can be described thus: Oral bioavailability in Sprague-Dawley rat at 3 mg/kg. To be noted: in vivo. It is filed as ADME, organism-based.
Data set [11] in a line: Dose normalized AUC in Sprague-Dawley rat at 1 mg/kg, iv. The data set is classed as ADME, organism-based. To be noted: in vivo.
Data set [12] is described as follows: Terminal half life in Sprague-Dawley rat at 1 mg/kg, iv. It is filed as ADME, organism-based. To be noted: in vivo, read-out: beta t1/2 (converted).
A short description of data set [13]: Tmax in Sprague-Dawley rat at 3 mg/kg, po. It is filed as ADME, organism-based. To be noted: in vivo.
Data set [14] in a line: Volume of distribution at steady state in Sprague-Dawley rat at 1 mg/kg, iv. It is filed as ADME, organism-based. To be noted: in vivo, read-out: Vdss.

pIC50: −log10 of the molar value. Converted amounts (≈) assume the structure as drawn.

The text below walks through data of ChEMBL document CHEMBL4321852, “Structure-Based and Property-Driven Optimization of N-Aryl Imidazoles toward Potent and Selective Oral RORγt Inhibitors” (J Med Chem, 2019).

For `CC(C)OC(=O)[C@H](C)N(C(=O)c1ccco1)c1c(Cl)cccc1Cl`, the logD in data set [1] amounted to 4.1.

For `Cc1c(C(F)(F)F)nc(-c2ccc(Cl)o2)n1-c1c(Cl)ccc(N2CC(CC(=O)O)C2)c1Cl`, the logD in data set [2] turned out to be 2.5. Besides, the negative-log IC50 (pIC50) in [3] is 6.06; in data set [4], 6.16. Besides, the K on Cytochrome P450 3A4 is greater than 0.1 min⁻¹.

In the case of `N#Cc1cccc(C#N)c1-n1cc(C2CC2)nc1-c1cnco1`, the logD in data set [2] and in data set [1] was 1.1 throughout. For the same compound, the microsomal CLint in data set [5] amounted to 33 µL/min/mg. For the same compound, the thermodynamic solubility in data set [6] is greater than 1000 µM.

Take `Cc1c(C(F)(F)F)nc(-c2ccc(Cl)o2)n1-c1c(Cl)ccc(N2CC(c3nnn[nH]3)C2)c1Cl`: the logD in data set [2] and in data set [1] was 2.5 in each case. In [5], the microsomal CLint was 49 µL/min/mg. In addition, the solubility (thermodynamic) in data set [6] is greater than 1000 µM.

Regarding `Cc1c(Cc2ccccc2)nc(-c2ccco2)n1-c1c(Cl)cccc1Cl`, the logD in [1] is greater than 6.9. Also, the pIC50 in data set [3] is 7.25; in data set [4], 7.09.

For `Cc1c(C(F)(F)F)nc(-c2ccc(Cl)o2)n1-c1c(Cl)cccc1Cl`, the logD in data set [2] and in [1] was 6.3 each time. The microsomal CLint in data set [5] was determined as 722 µL/min/mg. In data set [6], this compound displayed a thermodynamic solubility of less than 4 µM.

Regarding `Cc1c(CC(C)C)nc(-c2ccco2)n1-c1c(Cl)cccc1Cl`, the logD in data set [2] and in [1] was greater than 6.9 throughout. The pIC50 in [3] is 6.49; in data set [4], 6.53. The microsomal CLint in data set [5] is 693 µL/min/mg. This compound also returned a solubility (thermodynamic) in data set [6] of less than 4 µM.

Consider `CC(C)Cc1cn(-c2c(C#N)cccc2C#N)c(-c2cnco2)n1`, for which the log distribution coefficient (logD) in data set [2] and in [1] was 2 in each case. Also, the microsomal CLint in data set [5] stood at 153 µL/min/mg. This compound also displayed a solubility (thermodynamic) in data set [6] of 350 µM (≈ 111 µg/mL).

`CCOC(=O)C(C)N(C(=O)c1cccs1)c1c(C)cccc1Cl` (racemic) showed a logD in data set [1] of 3.6.

With `Cc1c(CC(C)C)nc(-c2ccc(Cl)o2)n1-c1c(Cl)ccc(N2CC(C(=O)O)C2)c1Cl` (single isomer, unassigned; atropisomer), the clearance in [7] worked out at 228 mL/min/kg. Besides, in [8], the Cmax/dose is given as 166 nM. The logD in data set [2] and in [1] was 3 throughout. Further, the values for the AUC/dose in data set [9] and in data set [11] were 70 nM·h and 156 nM·h, respectively. This compound also displayed a bioavailability in data set [10] of 45%. In data set [12], the half-life was 12 min. For the same compound, the microsomal CLint in data set [5] is 222 µL/min/mg. Further, the time of peak concentration (Tmax) in data set [13] came out at 36 min. The thermodynamic solubility in data set [6] was 690 µM (≈ 333 µg/mL). In addition, the Vd in [14] was found to be 3.6 L/kg.

In turn, `Cc1c(C2(C(F)(F)F)CC2)nc(-c2ccc(Cl)o2)n1-c1c(Cl)ccc(NCC(C)(C)C(=O)O)c1Cl` (single isomer, unassigned; atropisomer) gave a pH-dependent lipophilicity (logD) in data set [2] of 3.2. Further, the values for the pIC50 in data set [3] and in [4] were 6.51 and 7.10, respectively. In addition, at Cytochrome P450 3A4, the K amounted to 0.011 min⁻¹.

Consider `Cc1c(C(F)(F)F)nc(-c2ccc(Cl)o2)n1-c1c(Cl)ccc(N2CC(C(=O)O)C2)c1Cl` (single isomer, unassigned; atropisomer), for which, in [7], the clearance turned out to be 30 mL/min/kg. Besides, the Cmax/dose in data set [8] came to 181 nM. For the same compound, the logD in [2] and in data set [1] was 2.4 throughout. Also, the AUC/dose in data set [9] is 945 nM·h; in data set [11], 1179 nM·h. In addition, the bioavailability in [10] came to 80%. Besides, the figures for the pIC50 in data set [3] and in data set [4] were 5.77 and 5.35, respectively. At Cytochrome P450 3A4, this compound registered a K of 0.047 min⁻¹. In data set [12], the half-life is 276 min. Besides, the microsomal CLint in [5] stood at 56 µL/min/mg. The Tmax in data set [13] worked out at 78 min. Besides, the solubility (thermodynamic) in data set [6] was greater than 1000 µM. Further, the Vd in data set [14] came to 4 L/kg.

For `Cc1c(C(F)(F)F)nc(-c2ccc(Cl)o2)n1-c1c(Cl)ccc(N2CC(C(N)=O)C2)c1Cl` (single isomer, unassigned; atropisomer), the logD in data set [2] and in [1] was 4.9 in each case. Also, the microsomal CLint in data set [5] is 169 µL/min/mg. For the same compound, the solubility (thermodynamic) in data set [6] worked out at 40 µM (≈ 19.7 µg/mL).

As a reminder, the logD is lipophilicity at a set pH, counting ionised and neutral species. The pIC50 is the negative decadic logarithm of the IC50, by convention in mol/L. A word on the thermodynamic solubility: it is solubility found after equilibrating the solid with the medium. As a reminder, the clearance is a measure of how efficiently the substance is removed, as volume per time. For orientation: bioavailability means the share of a dose that reaches the circulation, judged against a reference dose that is usually intravenous. What is called Tmax is the time at which the peak concentration occurs.
